Experimental data taken from patent publication US20060063784A1, “Method of using substituted pyrazolo [1,5-a] pyrimidines” (priority 2004, published 2006).
Like-named read-outs stand apart in the source and are kept apart here.

System: 80S14 (p21-deficient) cells
Assay: Cytotoxicity assay using isogenic cell lines: IC50 in 80S14 (p21-deficient) cells, SRB
Type: cell-based, human
In short: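 IC50 is the concentration halving proliferation relative to untreated controls, read from SRB absorbance (560 nm) after TCA fixation. Test agent dilutions (5 pM–50 μM or 170 pg/ml–10 μg/ml) were left on p21-deficient 80S14 cells (12,000/well, pre-incubated overnight) for 5 days at 37 °C.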

[1] = Homo sapiens, 120 h, 80S14 (p21-deficient) cells, 5 days, SRB, class symbols, read-out: IC50 for 80S14
[2] = Homo sapiens, 120 h, 80S14 p21-deficient cells, 5 days incubation, SRB, read-out: IC50 for 80SI4
[3] = Homo sapiens, 80S14, 120 h, read-out: IC50 for 80S14 (uM)
[4] = 80S14 (p21-deficient) cells, 5 days, SRB, class symbols, read-out: IC50 for 80S14

Molecule	IC50 [2] [µM]	further results
COc1ccc(-c2ccnc3c(C(=O)c4cccs4)cnn23)cc1NC(=O)NC(C)C [Example 323, N-Isopropyl-N′-{2-methoxy-5-[3-(2-thienylcarbonyl)pyrazolo[1,5-a]pyrimidin-7-yl]phenyl}urea]		IC50 [1]: 1 to 10 µM
O=C(Nc1ccccc1)Nc1cccc(-c2ccnc3c(C(=O)c4cccs4)cnn23)c1 [Example 1, N-phenyl-N′-{3-[3-(thien-2-ylcarbonyl)pyrazolo[1,5-a]pyrimidin-7-yl]phenyl}urea]	< 1	
O=C(Nc1cccc(-c2ccnc3c(C(=O)c4ccco4)cnn23)c1)c1ccccc1 [Example 300, N-{3-[3-(2-Furoyl)pyrazolo[1,5-a]pyrimidin-7-yl]phenyl}benzamide]		IC50 [1]: 1 to 10 µM
CC(C)COC(=O)Nc1cccc(-c2ccnc3c(Br)cnn23)c1 [Example 327, Isobutyl 3-(3-bromopyrazolo[1,5-a]pyrimidin-7-yl)phenylcarbamate]		IC50 [1]: 10 to 50 µM
COc1ccc(C(=O)Nc2cccc(-c3ccnc4c(C(=O)c5cccs5)cnn34)c2)cc1 [Example 88, 4-methoxy-N-{3-[3-(thien-2-ylcarbonyl)pyrazolo[1,5-a]pyrimidin-7-yl]phenyl]benzamide]	< 1	
CC(CC(=O)Nc1cccc(-c2ccnc3c(C(=O)c4cccs4)cnn23)c1)C(F)(F)F (stereo not shown) [Example 59, 4,4,4-trifluoro-3-methyl-N-{3-[3-(thien-2-ylcarbonyl)pyrazolo[1,5-a]pyrimidin-7-yl]phenyl}butanamide]	< 1	
CC(C)OC(=O)Nc1cccc(-c2ccnc3c(C(=O)c4ccoc4)cnn23)c1 [Example 305, Isopropyl 3-[3-(3-furoyl)pyrazolo[1,5-a]pyrimidin-7-yl]phenylcarbamate]		IC50 [3]: 1 to 10 µM
CCOC(=O)NCC(=O)Nc1cccc(-c2ccnc3c(C(=O)c4cccs4)cnn23)c1 [Example 113, ethyl 2-oxo-2-({3-[3-(thien-2-ylcarbonyl)pyrazolo[1,5-a]pyrimidin-7-yl]phenyl}amino)ethylcarbamate]	1 to 10	
CC(C)OC(=O)NCC(=O)Nc1cccc(-c2ccnc3c(C(=O)c4cccs4)cnn23)c1 [Example 115, isopropyl 2-oxo-2-({3-[3-(thien-2-ylcarbonyl)pyrazolo[1,5-a]pyrimidin-7-yl]phenyl}amino)ethylcarbamate]	1 to 10	
COc1ccc(CC(=O)Nc2cccc(-c3ccnc4c(C(=O)c5cccs5)cnn34)c2)cc1 [Example 106, 2-(4-methoxyphenyl)-N-{3-[3-(thien-2-ylcarbonyl)pyrazolo[1,5-a]pyrimidin-7-yl]phenyl}acetamide]	< 1	
COC(=O)[C@@H](NC(=O)Nc1cccc(-c2ccnc3c(C(=O)c4cccs4)cnn23)c1)C(C)C [Example 4, methyl N-[({3-[3-(thien-2-ylcarbonyl)pyrazolo[1,5-a]pyrimidin-7-yl]phenyl}amino)carbonyl]-L-valinate]	< 1	
CCNC(=O)NCC(=O)Nc1cccc(-c2ccnc3c(C(=O)c4cccs4)cnn23)c1 [Example 137, N-2-[(ethylamino)carbonyl]-N-1-{3-[3-(thien-2-ylcarbonyl)pyrazolo[1,5-a]pyrimidin-7-yl]phenyl}glycinamide]		IC50 (80S14 p21-deficient cells, 5 days incubation, SRB, read-out: IC50 for 80SI4): 1 to 10 µM
N-{3-[3-(2-Thienylcarbonyl)pyrazolo[1,5-a]pyrimidin-7-yl]phenyl}-3-trifluoromethyl)benzamide [Example 281]		IC50 [4]: < 1 µM
CC(C)C(=O)Nc1cccc(-c2ccnc3c(C(=O)c4ccco4)cnn23)c1 [Example 241, N-[3-[3-(2-Furanylcarbonyl)pyrazolo-[1,5-a]pyrimidin-7-yl]phenyl}-2-methyl-propanamide]		IC50 [3]: 1 to 10 µM
CC(C)CNc1cccc(-c2ccnc3c(C(=O)c4cccs4)cnn23)c1 [Example 404, {7-[3-(Isobutylamino)phenyl]pyrazolo[1,5-a]pyrimidin-3-yl}(thien-2-yl)methanone]		IC50 [1]: 1 to 10 µM
O=C(Nc1cccc(-c2ccnc3c(C(=O)c4cccs4)cnn23)c1)c1cc(C(F)(F)F)ccc1C(F)(F)F [Example 280, N-{3-[3-(2-Thienylcarbonyl)pyrazolo[1,5-a]pyrimidin-7-yl]phenyl}-2,5-bis(trifluoromethyl)benzamide]		IC50 [1]: 10 to 50 µM
O=C(CNC(=O)c1ccccc1)Nc1cccc(-c2ccnc3c(C(=O)c4cccs4)cnn23)c1 [Example 135, N-[2-oxo-2-({3-[3-(thien-2-ylcarbonyl)pyrazolo[1,5-a]pyrimidin-7-yl]phenyl]amino)ethyl]benzamide]	1 to 10	
CC(C)OC(=O)Nc1cccc(-c2ccnc3c(C(=O)c4ccccc4)cnn23)c1 [Example 294, Isopropyl 3-(3-benzoylpyrazolo[1,5-a]pyrimidin-7-yl)phenylcarbamate]		IC50 [3]: < 1 µM
Cc1ccccc1S(=O)(=O)Nc1cccc(-c2ccnc3c(C(=O)c4cccs4)cnn23)c1 [Example 33, 2-methyl-N-{3-[3-(thien-2-ylcarbonyl)pyrazolo[1,5-a]pyrimidin-7-yl]phenyl}benzenesulfonamide]	< 1	

Molecule	IC50 [2] [µM]	further results
O=C(c1ccco1)c1cnn2c(-c3cccc(NC(=O)C4CCCC4)c3)ccnc12 [Example 302, N-{3-[3-(2-Furoyl)pyrazolo[1,5-a]pyrimidin-7-yl]phenyl}cyclopentanecarboxamide]		IC50 [1]: < 1 µM
O=C(NC1CCCC1)c1cccc(-c2ccnc3c(C(=O)c4cccs4)cnn23)c1 [Example 320, N-Cyclopentyl-3-[3-(2-thienylcarbonyl)pyrazolo[1,5-a]pyrimidin-7-yl]benzamide]		IC50 [1]: < 1 µM
CCS(=O)(=O)Nc1cccc(-c2ccnc3c(C(=O)c4cccs4)cnn23)c1 [Example 28, N-{3-[3-(thien-2-ylcarbonyl)pyrazolo[1,5-a]pyrimidin-7-yl]phenyl}ethanesulfonamide]	< 1	
COc1cc(/C=C/CNc2cccc(-c3ccnc4c(C(=O)c5cccs5)cnn34)c2)ccc1O [Example 401, [7-(3-{[(2E)-3-(4-Hydroxy-3-methoxyphenyl)prop-2-enyl]amino}phenyl)pyrazolo[1,5-a]pyrimidin-3-yl](thien-2-yl)methanone]		IC50 [1]: 10 to 50 µM
C=CCC(C)OC(=O)Nc1cccc(-c2ccnc3c(C(=O)c4cccs4)cnn23)c1 (stereo not shown) [Example 189, 1-methylbut-3-enyl 3-[3-(thien-2-ylcarbonyl)pyrazolo[1,5-a]pyrimidin-7-yl]phenylcarbamate]	< 1	
CSCCC(=O)Nc1cccc(-c2ccnc3c(C(=O)c4cccs4)cnn23)c1 [Example 50, 3-(methylthio)-N-{3-[3-(thien-2-ylcarbonyl)pyrazolo[1,5-a]pyrimidin-7-yl]phenyl}propanamide]	< 1	
CCCCCCCOc1ccc(C(=O)Nc2cccc(-c3ccnc4c(C(=O)c5cccs5)cnn34)c2)cc1 [Example 91, 4-(heptyloxy)-N-{3-[3-(thien-2-ylcarbonyl)pyrazolo[1,5-a]pyrimidin-7-yl]phenyl}benzamide]	10 to 50	
C=CCCOC(=O)Nc1cccc(-c2c(C)cnc3c(C(=O)c4cccs4)cnn23)c1 [Example 213, but-3-enyl 3-[6-methyl-3-(thien-2-ylcarbonyl)pyrazolo[1,5-a]pyrimidin-7-yl]phenylcarbamate]	10 to 50	
CCCCCCCCCCC(=O)Nc1cccc(-c2ccnc3c(C(=O)c4cccs4)cnn23)c1 [Example 142, N-{3-[3-(thien-2-ylcarbonyl)pyrazolo[1,5-a]pyrimidin-7-yl]phenyl}undecanamide]	10 to 50	
CCOC(=O)c1cnn2c(-c3cccc(NC(=O)C4CCC4)c3)ccnc12 [Example 240, Ethyl 7-[3-[(cyclobutylcarbonyl)amino]phenyl]-pyrazolo[1,5-a]pyrimidine-3-carboxylic acid]		IC50 [4]: 10 to 50 µM
COc1cccc(C(=O)Nc2cccc(-c3ccnc4c(C(=O)c5cccs5)cnn34)c2)c1 [Example 97, 3-methoxy-N-{3-[3-(thien-2-ylcarbonyl)pyrazolo[1,5-a]pyrimidin-7-yl]phenyl}benzamide]	< 1	
C#CCN(C(=O)C1CC1)c1cccc(-c2ccnc3c(C(=O)OCC)cnn23)c1 [Example 258, Ethyl 7-[3-[(cyclopropylcarbonyl)-2-propynylamino]phenyl]-pyrazolo[1,5-a]pyrimidine-3-carboxylic acid]		IC50 [4]: 10 to 50 µM
O=C(c1cccs1)c1cnn2c(-c3cccc(C(F)(F)F)c3)ccnc12 [Example 223, [7-(3-Trifluoromethylphenyl)pyrazolo[1,5-a]-pyrimidin-3-yl}-2-thienyl-methanone]		IC50 [1]: 1 to 10 µM
CCN(C(=O)C1CC1)c1cccc(-c2ccnc3c(Cl)cnn23)c1 [Example 255, N-[3-(3-Chloropyrazolo[1,5-a]pyrimidin-7-yl)phenyl]-N-ethyl-cyclopropanecarboxamide]		IC50 [1]: 10 to 50 µM
CN(C=O)c1cccc(-c2ccnc3c(C(=O)c4cccs4)cnn23)c1 [Example 261, Formamide, N-methyl-N-[3-[3-(2-thienylcarbonyl)pyrazolo[1,5-a]pyrimidin-7-yl]phenyl}]		IC50 [4]: 1 to 10 µM
CC(C)COC(=O)NCC(=O)Nc1cccc(-c2ccnc3c(C(=O)c4cccs4)cnn23)c1 [Example 117, isobutyl 2-oxo-2-({3-[3-(thien-2-ylcarbonyl)pyrazolo[1,5-a]pyrimidin-7-yl]phenyl}amino)ethylcarbamate]	1 to 10	
CCCOC(=O)NCC(=O)Nc1cccc(-c2ccnc3c(C(=O)c4cccs4)cnn23)c1 [Example 114, propyl 2-oxo-2-({3-[3-(thien-2-ylcarbonyl)pyrazolo[1,5-a]pyrimidin-7-yl]phenyl}amino)ethylcarbamate]	10 to 50	
Cc1cnc2c(C(=O)c3cccs3)cnn2c1-c1cccc(NC(=O)C2CCCC2)c1 [Example 218, N-{3-[6-methyl-3-(thien-2-ylcarbonyl)pyrazolo[1,5-a]pyrimidin-7-yl]phenyl}cyclopentanecarboxamide]	10 to 50	
